# According to ChEMBL document CHEMBL5465560, “Selectivity Literature for EUbOPEN Chemogenomic Library” (2024):
# Experiments:
# [1] = target: T1, Serine/threonine-protein kinase BRSK1 (Homo sapiens) (UniProt Q8TDC3); assay: Selectivity interaction (KinomeScan (DiscoverX)) EUB0001049a BRSK1; details: at 1 µM
# T1 sequence (whole entry): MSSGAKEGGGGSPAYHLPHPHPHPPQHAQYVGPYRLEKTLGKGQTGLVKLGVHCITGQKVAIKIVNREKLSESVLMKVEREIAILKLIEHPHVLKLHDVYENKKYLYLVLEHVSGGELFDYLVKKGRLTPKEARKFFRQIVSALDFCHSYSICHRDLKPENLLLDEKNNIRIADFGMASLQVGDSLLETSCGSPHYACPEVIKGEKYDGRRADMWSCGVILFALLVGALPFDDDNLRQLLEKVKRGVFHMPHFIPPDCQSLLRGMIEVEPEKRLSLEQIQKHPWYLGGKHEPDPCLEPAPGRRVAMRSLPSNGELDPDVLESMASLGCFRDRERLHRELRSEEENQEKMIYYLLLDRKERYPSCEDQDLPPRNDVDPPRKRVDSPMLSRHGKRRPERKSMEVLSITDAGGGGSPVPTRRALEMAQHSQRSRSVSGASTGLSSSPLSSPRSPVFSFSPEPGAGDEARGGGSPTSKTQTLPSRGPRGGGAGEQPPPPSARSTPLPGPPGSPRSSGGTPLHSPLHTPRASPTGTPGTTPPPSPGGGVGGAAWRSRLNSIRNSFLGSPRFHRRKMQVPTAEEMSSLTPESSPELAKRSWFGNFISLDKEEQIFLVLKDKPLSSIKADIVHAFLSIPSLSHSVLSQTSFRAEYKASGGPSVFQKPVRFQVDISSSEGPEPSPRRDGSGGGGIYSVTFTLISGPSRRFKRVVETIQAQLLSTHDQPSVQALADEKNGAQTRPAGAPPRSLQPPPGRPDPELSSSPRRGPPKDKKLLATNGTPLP
# [2] = target: Glycogen synthase kinase-3 beta (Homo sapiens, UniProt P49841); assay: Selectivity interaction (Kinase panel (DSF assay)) EUB0001558a GSK3B
# [3] = tested on: Tyrosine-protein kinase ABL1 (Homo sapiens), P00519 [F317L]; assay: (§1) Selectivity interaction (Ambit KINOMEscan and KiNATiv profiling in Jurkat cells) EUB0000090b ABL1; type: cell-based; details: at 1 µM
# [4] = tested on: Tyrosine-protein kinase ABL1 (Homo sapiens), P00519 [F317I]; assay: as §1; type: cell-based; details: at 1 µM
# [5] = tested on: Tyrosine-protein kinase ABL1 (Homo sapiens), P00519 [Y253F]; assay: as §1; type: cell-based; details: at 1 µM
# [6] = tested on: Tyrosine-protein kinase ABL1 (Homo sapiens), P00519 [E255K]; assay: as §1; type: cell-based; details: at 1 µM
# [7] = target: Tyrosine-protein kinase ABL1 (Homo sapiens, UniProt P00519); assay: as §1; type: cell-based; details: at 1 µM
# [8] = tested on: Tyrosine-protein kinase ABL1 (Homo sapiens), P00519 [M351T]; assay: as §1; type: cell-based; details: at 1 µM
# [9] = tested on: Tyrosine-protein kinase ABL1 (Homo sapiens), P00519 [Q252H]; assay: as §1; type: cell-based; details: at 1 µM
# [10] = tested on: Tyrosine-protein kinase ABL1 (Homo sapiens), P00519 [T315I]; assay: as §1; type: cell-based; details: at 1 µM
# [11] = tested on: Tyrosine-protein kinase ABL1 (Homo sapiens), P00519 [H396P]; assay: as §1; type: cell-based; details: at 1 µM
# [12] = target: Bromodomain-containing protein 4 (Homo sapiens, UniProt O60885); details: at 10 µM
# [13] = target: T2, Mitogen-activated protein kinase 13 (Homo sapiens) (UniProt O15264); assay: Selectivity interaction (Upstate Kinase Profiler service (Millipore)) EUB0000056c MAPK13; details: at 1 µM
# T2 sequence (whole entry): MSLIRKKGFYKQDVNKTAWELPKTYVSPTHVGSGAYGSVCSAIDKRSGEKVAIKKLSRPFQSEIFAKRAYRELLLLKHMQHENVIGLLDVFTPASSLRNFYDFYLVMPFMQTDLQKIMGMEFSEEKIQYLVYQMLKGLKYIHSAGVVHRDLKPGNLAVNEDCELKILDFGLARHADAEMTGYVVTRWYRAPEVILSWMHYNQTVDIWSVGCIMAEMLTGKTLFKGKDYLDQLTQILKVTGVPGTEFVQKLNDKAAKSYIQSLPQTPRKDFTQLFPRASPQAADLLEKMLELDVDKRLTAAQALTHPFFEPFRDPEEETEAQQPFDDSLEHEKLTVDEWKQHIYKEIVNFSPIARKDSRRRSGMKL
# [14] = target: T3, 5-hydroxytryptamine receptor 2C (Homo sapiens) (UniProt P28335); assay: Selectivity interaction (Panel of kinases, GPCRs, ion channels and transporters (enzymatic assay)) EUB0000266bCl HTR2C
# T3 sequence (whole entry): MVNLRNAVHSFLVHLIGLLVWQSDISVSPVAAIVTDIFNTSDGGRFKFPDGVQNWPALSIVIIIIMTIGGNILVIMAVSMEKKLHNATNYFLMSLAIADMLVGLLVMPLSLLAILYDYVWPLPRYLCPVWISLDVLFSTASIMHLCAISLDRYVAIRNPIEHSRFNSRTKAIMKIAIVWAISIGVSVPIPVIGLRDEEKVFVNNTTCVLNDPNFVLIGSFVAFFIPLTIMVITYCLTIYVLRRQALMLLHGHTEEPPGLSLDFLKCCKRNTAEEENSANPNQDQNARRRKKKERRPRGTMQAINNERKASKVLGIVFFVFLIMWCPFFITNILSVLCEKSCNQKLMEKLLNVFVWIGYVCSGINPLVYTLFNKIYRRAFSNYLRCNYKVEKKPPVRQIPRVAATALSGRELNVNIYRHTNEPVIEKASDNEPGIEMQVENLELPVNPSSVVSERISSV
# [15] = target: T4, Rhodopsin kinase GRK7 (Homo sapiens) (UniProt Q8WTQ7); assay: Selectivity interaction (SelectScreen profiling (Invitrogen)) EUB0000607a GRK7; details: at 2 µM
# T4 sequence (whole entry): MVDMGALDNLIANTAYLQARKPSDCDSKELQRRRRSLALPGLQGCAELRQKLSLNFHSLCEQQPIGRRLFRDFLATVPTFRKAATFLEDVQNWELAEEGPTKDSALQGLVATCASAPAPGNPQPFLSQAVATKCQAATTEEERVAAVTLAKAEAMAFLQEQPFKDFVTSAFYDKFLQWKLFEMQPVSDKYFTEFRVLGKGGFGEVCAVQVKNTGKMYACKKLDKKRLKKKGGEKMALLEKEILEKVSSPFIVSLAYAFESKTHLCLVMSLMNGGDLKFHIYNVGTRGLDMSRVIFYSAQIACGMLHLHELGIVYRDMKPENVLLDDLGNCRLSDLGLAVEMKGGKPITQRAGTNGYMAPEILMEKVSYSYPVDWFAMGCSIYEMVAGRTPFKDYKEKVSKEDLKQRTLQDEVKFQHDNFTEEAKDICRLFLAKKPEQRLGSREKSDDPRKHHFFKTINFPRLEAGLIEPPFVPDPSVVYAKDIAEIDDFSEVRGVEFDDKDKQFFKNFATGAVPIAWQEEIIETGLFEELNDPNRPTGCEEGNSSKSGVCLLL
# [16] = target: Tyrosine-protein kinase Yes (Homo sapiens) (UniProt P07947); assay: Selectivity interaction (ProQinase) EUB0000171b YES1
# Tyrosine-protein kinase Yes (Homo sapiens), sequence (P07947 2-543 limits assumed): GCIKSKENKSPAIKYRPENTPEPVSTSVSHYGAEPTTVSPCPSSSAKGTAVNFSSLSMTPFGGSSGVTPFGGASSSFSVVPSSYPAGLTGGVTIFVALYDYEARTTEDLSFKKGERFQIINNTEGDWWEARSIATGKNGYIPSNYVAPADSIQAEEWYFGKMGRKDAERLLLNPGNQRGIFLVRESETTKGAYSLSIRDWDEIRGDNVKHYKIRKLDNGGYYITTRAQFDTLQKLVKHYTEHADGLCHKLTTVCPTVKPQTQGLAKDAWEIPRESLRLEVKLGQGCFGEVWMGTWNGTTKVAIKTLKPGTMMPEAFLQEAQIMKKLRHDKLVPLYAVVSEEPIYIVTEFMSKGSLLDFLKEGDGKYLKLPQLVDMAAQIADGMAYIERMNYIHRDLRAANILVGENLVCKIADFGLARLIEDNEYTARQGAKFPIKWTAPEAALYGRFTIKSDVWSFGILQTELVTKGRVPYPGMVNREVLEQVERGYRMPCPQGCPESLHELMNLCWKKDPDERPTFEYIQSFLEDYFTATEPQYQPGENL
# Glycogen synthase kinase-3 beta, sequence (P49841 whole entry, looked up): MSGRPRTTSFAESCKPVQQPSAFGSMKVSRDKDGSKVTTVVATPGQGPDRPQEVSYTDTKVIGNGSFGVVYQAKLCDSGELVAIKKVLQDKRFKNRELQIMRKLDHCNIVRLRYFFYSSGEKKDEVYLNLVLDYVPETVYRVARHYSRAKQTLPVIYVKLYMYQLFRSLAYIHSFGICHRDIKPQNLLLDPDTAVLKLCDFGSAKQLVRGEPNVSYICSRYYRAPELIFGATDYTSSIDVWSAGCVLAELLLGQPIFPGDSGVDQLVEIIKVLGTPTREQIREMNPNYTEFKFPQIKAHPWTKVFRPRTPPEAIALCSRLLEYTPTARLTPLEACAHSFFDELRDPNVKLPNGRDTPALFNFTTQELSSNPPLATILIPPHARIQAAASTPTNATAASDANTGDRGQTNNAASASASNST
compound,measurement,setting,value
COc1cc(Nc2nc(C)cc(-c3cnn4nc(OC)ccc34)n2)cc(C(F)(F)F)c1,% of control,[1],86%
CC(C)(O)[C@H](F)CN1Cc2cc(NC(=O)c3cnn4cccnc34)c(N3CCOCC3)cc2C1=O,dTM,[2],0.9 K
CN(C)C/C=C/C(=O)Nc1ccc(C(=O)N2CCCC(Nc3ncc(Cl)c(-c4c[nH]c5ccccc45)n3)C2)cc1 (configuration not stated),% of control,[3],91%
same,% of control,[4],100%
same,% of control,[5],92%
same,% of control,[6],45%
same,% of control,[7],94%
same,% of control,[8],88%
same,% of control,[9],58%
same,% of control,[10],99%
same,% of control,[11],95%
Cc1cc([C@@H](C)Nc2ccccc2C(=O)O)c2nc(N3CCOCC3)cc(=O)n2c1 [AZD-6482],% of control,[12],82%
Cc1ccc(-c2ccc3c(ccc4sc5c(c43)NC[C@@H](C)NC5=O)n2)cn1,% of inhibition,[13],6%
CCn1c(-c2nc3cc(C(=O)N4CCCC(N)C4)ccc3n2C)cc2ccccc21 (configuration not stated),pXC50,[14],4.7 M
CNC(=O)Nc1ccc(-c2nc(N3CC4CCC(C3)O4)c3cnn(C4CCC5(CC4)OCCO5)c3n2)cc1,% of inhibition,[15],7%
C=CC(=O)Nc1cccc(C(=O)Nc2ccc(Nc3cc(-c4[nH]c(SC)nc4C)ccn3)cc2)c1,% of control,[16]; at 1 µM,89%
same,% of control,[16]; at 5 µM,75%
